Legend:
[1] = biological target: T1, melatonin receptors (Ovis aries, UniProt P48040); experiment: Binding to melatonin receptors, sheep pars tuberalis cells (competition with 2-iodo-melatonin); conditions: sheep pars tuberalis membranes
T1 construct: Sheep pars tuberalis membranes are prepared and used as target tissue; from tissue; host or cells: sheep pars tuberalis membranes
Description: B1) Study on Sheep Pars Tuberalis Cells
Studies of the binding of the compounds of the invention to melatonin receptors were carried out according to conventional techniques on sheep pars tuberalis cells. The pars tuberalis of the adenohypophysis is in fact characterized, in mammals, by a high density of melatonin receptors (Journal of Neuroendocrinology, 1, pp 1-4, 1989).
1) Sheep pars tuberalis membranes are prepared and used as target tissue in saturation experiments in order to determine the binding capacities and affinities for 2-(^125 I) iodomelatonin.
2) Sheep pars tuberalis membranes are used as target tissue, with the various compounds to be tested, in competitive binding experiments with respect to 2-iodo-melatonin.
Each experiment is carried out in triplicate and a range of different concentrations is tested for each compound.
The results make it possible to determine, after statistical treatment, the binding affinities of the compound tested.

[2] = Foregoing pharmacological Examples (A to I), carbamides or ureas substituted for the compounds of Examples 119 and 131; conditions: in place of the compounds of Examples 119 and 131
[3] = test system: C3H/He mice; experiment: Free exploratory test in C3H/He mice; type: in vivo; conditions: oral
Description: Effects in the free exploratory test in C3H/He mice
Behavior was assessed in a box subdivided into six equal square exploratory units, which were interconnected by small doors. It could be divided in half lengthwise by closing partitions. Twenty-four hours before the test, each animal was randomly placed in one half of the apparatus, with the temporary partitions in place, in order to become familiarized with it. […]
numbers of attempts towards the unfamiliar compartment latency of the first entry into the unfamiliar compartment time spent in the unfamiliar compartment locomotion in the unfamiliar compartment number of rears in the unfamiliar compartment locomotion in the familiar compartment number of rears in the familiar compartment
Compounds were orally administered at doses of […] (in 1% HEC), 40 minutes before the test.
The […] group received the vehicle under the same conditions.

[4] = 40 minutes before test, statistically significant for the 3 tested doses

T1 sequence (P48040 whole entry): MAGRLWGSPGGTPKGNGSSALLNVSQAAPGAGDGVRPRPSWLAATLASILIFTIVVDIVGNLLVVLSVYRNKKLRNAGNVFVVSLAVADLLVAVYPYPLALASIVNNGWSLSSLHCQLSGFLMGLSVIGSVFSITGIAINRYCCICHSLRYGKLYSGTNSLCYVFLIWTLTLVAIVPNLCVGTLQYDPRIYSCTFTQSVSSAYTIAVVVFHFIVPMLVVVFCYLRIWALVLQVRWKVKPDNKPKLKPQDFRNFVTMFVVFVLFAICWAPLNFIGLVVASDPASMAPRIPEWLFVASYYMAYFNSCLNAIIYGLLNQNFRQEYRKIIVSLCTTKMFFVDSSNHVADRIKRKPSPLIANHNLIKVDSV

## CC(=O)NCCc1cccc2ccc3c(c12)CC(C)O3 (stereo not shown) [Example 119, 2,3-DIHYDRO-2-METHYL-4-(2-ACETAMIDOETHYL)1-NAPHTHO[2,1-b]-FURAN]
[1]
  affinity for melatonin receptors (in words): extremely powerful affinity

## CNC(=O)NCCc1cccc2ccc3c(c12)CC(C)O3 (stereo not shown) [Example 120, N-[2-(2,3-DIHYDRO-2-METHYL-1-NAPHTHO[2,1-b]FURAN-4-YL)ETHYL]-N'-METHYLUREA]
[2]
  results in the foregoing pharmacological Examples, compared with the compounds of Examples 119 and 131: approximately equally statistically-significant results

## CC(=O)NCCc1coc2ccc3c(c12)CCCO3 [Example 131, N-[2-(8,9-Dihydro-7H-furo[3,2-f]chromen-1-yl)ethyl]acetamide]
[3]; [4]
  latency of the first entry into the unfamiliar compartment: dose-dependently reduced
  locomotion in the unfamiliar compartment: increased the locomotion in the unfamiliar compartment
  numbers of attempts towards the unfamiliar compartment: dose-dependently reduced
[3]; at 25 mg/kg (highest dose)
  number of rears in the unfamiliar compartment: significantly increased the number of rears in the unfamiliar compartment
[3]; at 5 and 25 mg/kg
  time spent in the unfamiliar compartment: significantly increased the time spent in the unfamiliar compartment

— US6071946A, “Tricyclic urea compounds” (Adir et Compagnie, priority 1994, dated 2000)
